The results in this text go back to patent US20110111976A1, “MICRORNA BIOMARKERS OF TISSUE INJURY” (priority 2008, published 2011).

In series [1] the test system is Sprague-Dawley rats. Description: Pooled sample study: miR-133 in blood plasma of toxicant-treated rats by qPCR. Format: in vivo. Conditions: pooled rat plasma (5 samples), cerivastatin 1.0 mg/kg/day oral Day 14, CBrCl3 0.1 ml/kg oral Days 2 & 4, TMPD 6 mg/kg bid s.c. Day 3. Here is the method:
(§1) To explore the feasibility of detecting miRNA tissue injury biomarkers in plasma, a pilot study was performed in which pooled blood plasma samples from rat toxicology studies were analyzed using a qPCR-based assay (Raymond et at, 2005, RNA 11:1737; WO 2006/081282). The miRNAs miR-122 and miR-133 were chosen for quantification because they are extremely abundant and specific to liver and muscle, respectively (FIG. 1). Stored plasma samples from rats that had previously been treated with a liver damaging agent trichlorobromomethane (CBrCl3) or with one of two muscle damaging agents 2,3,5,6-tetramethyl-p phenylenediamine (TMPD) or cerivastatin) were assayed form miRNA levels using qPCR.
(§2) Animals Male and female Sprague-Dawley rats were obtained from Charles River Laboratories, Inc. (Raleigh, N.C.). The rats were approximately seven to eight weeks of age and weighed from 125 to 325 grams at the start of the study. The animals were acclimated for approximately one week and randomized into treatment and control groups. During the toxicity studies targeting liver, the animals were maintained on a caloric-restricted diet, and fasted overnight prior to necropsy. Doses were different for each model compound tested and were calculated based on animal body weight. For the compounds, routes of administration, dose groups, and time points, see the below compound section.
(§3) Skeletal Muscle Toxicant • 2,3,5,6-tetramethyl-p phenylenediamine (TMPD) • Doses: 6 mg/kg bid • Dosing: 0.9% NaCl by subcutaneous injection • Animals: Sprague Dawley Male Rats • Time Points Day 3, TMPD Plasma (Day 3) and Controls (5 samples, 100 ul each pooled=500 ul total).
(§4) Liver Toxicant • Trichlorbromomethane (CCl3Br) • Doses: 0.1 ml/kg • Dosing: 100% liquid paraffin by oral gavage • Animals: Sprague Dawley Male Rats • Time Point: Day 2, 4 CCl3Br Plasma (Days 2 & 4) and Controls (5 samples, 100 ul each pooled=500 ul total)
(§5) Liver and Muscle Toxicant • Cerivastatin • Doses: 1.0 mg/kg/day • Dosing: 0.5% methylcellulose by oral gavage • Animals: Sprague Dawley Female Rats • Time Point Day 14 Cerivastatin Plasma (Day 14) and Controls (5 samples, 100 ul each pooled=500 μl total)
(§6) Plasma Samples All plasma samples were collected in EDTA tubes at final necropsy from the vena cava. Samples were inverted several times, and centrifuged for 20 minutes at 2,900 RPM at 4° C. Plasma samples were removed and stored at −70° C. Pooled blood plasma samples from rat toxicology studies were analyzed using a qPCR-based assay (Raymond et al, 2005, RNA 11:1737; WO 2006/081282). Control slope and intercept values for miR-122 and miR-133 were calculated from a concentration series of each microRNA added to total yeast RNA and then analyzed using the qPCR assay for each miRNA. The slope and intercept values from the standard curve were used to calculate the amount of each respective miRNA in each sample expressed as the number of miRNA copies per 20 ng of total RNA in each sample. Cycle threshold values (Ct) for each sample were converted to miRNA copy numbers by comparison to standard curves generated using single stranded mature miRNAs and are expressed as copies/20 pg input RNA (approximately equivalent to copies/cell).
A general note: Real-time PCR tracks product formation cycle by cycle.

In series [2] the test system is Sprague-Dawley rats. Description: Pooled sample study: miR-122 in blood plasma of toxicant-treated rats by qPCR. Format: in vivo. Conditions: pooled rat plasma (5 samples), cerivastatin 1.0 mg/kg/day oral Day 14, CBrCl3 0.1 ml/kg oral Days 2 & 4, TMPD 6 mg/kg bid s.c. Day 3. How it is done:
as §1, §2, §3, §4, §5, §6

Series [3] has as its system Sprague-Dawley rats. Description: Liver histopathology scores of toxicant-treated rats. It counts as in vivo, rat. Conditions: TMPD-treated rats. How it is done:
(§7) To follow up on the initial results shown in Example 2, blood samples from 44 individual rats that had been treated with varying doses of CBrCl3, CCl4 (another liver toxicant), or TMPD were evaluated using qPCR of miR-122 and miR-133. In addition, data from histopathology and a panel of standard biomarkers (ALT, AST, CK, skTnI, etc.) were also available for these same individual rats and were used to compare the results from microRNA assays with the standard histopathology and protein biomarkers.
as §2
(§8) Liver Toxicant • Trichlorobromomethane (CCl3Br) • Doses: 0.03, 0.1 ml/kg • Dosing: 100% liquid paraffin by oral gavage • Animals: Sprague Dawley Male Rats • Time Point: CCl3Br Plasma (Days 2 & 4) and Controls (4 controls, 3 samples per group, 100 μl each) • Carbon Tetrachloride (CCl4) • Doses: 0.03, 0.1, 0.3 ml/kg • Dosing: 100% liquid paraffin by oral gavage • Animals: Sprague Dawley Male Rats • Time Point: CCl4 Plasma (Days 2) and Controls (4 samples per group, 100 μl each)

The subject of series [4] is Sprague-Dawley rats. Description: Clinical chemistry (AST, ALT, CK) in blood plasma of toxicant-treated rats. It counts as in vivo, rat. The note with it: for ALT / AST / CK: Day 2, plasma, individual male rats. How it is done:
as §7, §2
(§9) Skeletal Muscle Toxicant • 2,3,5,6-tetramethyl-p phenylenediamine (TMPD) • Doses: 2, 4 mg/kg bid • Dosing: 0.9% NaCl by subcutaneous injection • Animals: Sprague Dawley Male Rats • Time Points: TMPD Plasma (Day 2) and Controls (5 samples per group, […] pooled=500 μl total).
as §8

The subject of series [5] is Sprague-Dawley rats. Description: Individual sample study: miR-133 in blood plasma of toxicant-treated rats by qPCR. It counts as in vivo, rat. Conditions: Day 2, plasma, individual male rats. How it is done: as §7, §2, §9, §8
as §6, with “are expressed in Table 4 as copies/20” for “are expressed as copies/20”

Series [6] concerns Sprague-Dawley rats. Description: Individual sample study: miR-122 in blood plasma of toxicant-treated rats by qPCR. Format: in vivo, rat. Conditions: Day 2, plasma, individual male rats. How it is done:
as §7, §2, §9, §8
as §6, with “are expressed in Table 4 as copies/20” for “are expressed as copies/20”

Series [7] relates to Sprague-Dawley rats. Description: Muscle histopathology (quad, soleus) of TMPD-treated rats. It counts as in vivo, rat. More on the design: key: 1 = very slight; 2 = slight or small; 3 = moderate; 4 = marked; 5 = severe tissue injury. The note with it: Day 2, individual male rats. Here is the method:
as §7, §2, §9

Series [8] relates to Sprague-Dawley rats. Description: miR-10a in urine of kidney-toxicant-treated rats by qPCR. It counts as in vivo, rat. Conditions: Gentamicin 240 mg/kg/day intraperitoneal, individual male rats.
Source text: as §2, with “targeting kidney,” for “targeting liver,”, “below Test Compound” for “below compound”
Urine Samples Urine samples were collected overnight on either dry or wet ice, aliquoted, and stored at −70° C. […] Urine samples were thawed on ice and about 1 milliliter (ml) of each sample placed into a tube. Each sample was placed in a room temperature speed-vac to reduce sample volume to about 200 microliters (μl). About 1 ml of trizol was added to the viscous concentrated urine solution and RNA extracted using Ambion BlycoBlue and alcohol precipitation.
Samples from rat toxicology studies were analyzed for miRNA levels using a qPCR-based assay (Raymond et al, 2005, RNA 11:1737; WO 2006/081282). Control slope and intercept values for miR-10a was calculated from a concentration series of miR-10a added to total yeast RNA and then analyzed using the qPCR assay. The slope and intercept values from the standard curve were used to calculate the amount of miR-10a in each sample expressed as the number of miRNA copies per 20 ng of total RNA in each sample. Cycle threshold values (Ct) for each sample were converted to miRNA copy numbers by comparison to a standard curve generated using single stranded mature miR-10a and are expressed in Table 7 as copies/20 pg input RNA (approximately equivalent to copies/cell).

Series [9] relates to Sprague-Dawley rats. Description: Kidney histopathology (proximal tubule overall tissue injury) of toxicant-treated rats. It counts as in vivo, rat. Conditions: Gentamicin 240 mg/kg/day intraperitoneal, Day 12, individual male rats.
Source text: as §2, with “targeting kidney,” for “targeting liver,”, “below Test Compound” for “below compound”

Values joined by “and” are separate entries in the source; they are usually repeats but may differ in a detail not shown here. Equal entries are not always repeated.

For `Cc1c(C)c(N)c(C)c(C)c1N` [TMPD, 2,3,5,6-tetramethyl-p phenylenediamine], in series [1] (250 ng total RNA input), the “miR-133 Copies” value came to 4753175 and the “miR-133 Ct Mean” value is recorded as 23.7323. Moreover, the “miR-133 Copies/20 pg” value in [1] is 380.3 Copies/20 pg. Besides, in series [2] (250 ng total RNA input), the “miR-122 Copies” value was determined as 89353.3 and the “miR-122 Ct Mean” value is reported as 26.2479. In addition, in [2], the “miR-122 Copies/20 pg” value was found to be 7.1 Copies/20 pg. Moreover, in series [3], the liver histopathology entry is reported as “no liver histopathology has been observed”. In series [4] (TMPD 2 mg/kg bid subcutaneous), the ALT is 29 U/L and 36 U/L and 37 U/L and 27 U/L and 30 U/L; the AST is 120 U/L and 164 U/L and 203 U/L and 111 U/L and 167 U/L; the CK is 424 U/L and 695 U/L and 696 U/L and 450 U/L and 463 U/L. Moreover, in series [4] (TMPD 4 mg/kg bid subcutaneous), the ALT was 60 U/L and 133 U/L and 215 U/L and 94 U/L and 56 U/L; the AST is 357 U/L and 1250 U/L and 1740 U/L and 700 U/L and 501 U/L; the CK is 363 U/L and 767 U/L and 1252 U/L and 439 U/L and 343 U/L. Besides, in series [4] (rats dosed with TMPD, plasma), the ALT versus controls result is “significantly elevated” and the AST versus controls result is “significantly elevated”. For the same compound, the miR-133 in series [5] (TMPD 2 mg/kg bid subcutaneous) is 0.9 copies/20 pg input RNA and 4.3 copies/20 pg input RNA and 9.3 copies/20 pg input RNA and 1.3 copies/20 pg input RNA and 4.1 copies/20 pg input RNA. In addition, the miR-133 in series [5] (TMPD 4 mg/kg bid subcutaneous) is 19.3 copies/20 pg input RNA and 63.9 copies/20 pg input RNA and 79.3 copies/20 pg input RNA and 63.8 copies/20 pg input RNA and 16.7 copies/20 pg input RNA. The miR-122 in series [6] (TMPD 2 mg/kg bid subcutaneous) was 2.6 copies/20 pg input RNA and 5.6 copies/20 pg input RNA and 7.3 copies/20 pg input RNA and 0.8 copies/20 pg input RNA and 2.2 copies/20 pg input RNA. Moreover, the miR-122 in [6] (TMPD 4 mg/kg bid subcutaneous) was 9.5 copies/20 pg input RNA and 1.8 copies/20 pg input RNA and 15.7 copies/20 pg input RNA and 11.7 copies/20 pg input RNA and 3.2 copies/20 pg input RNA. Besides, in [7] (TMPD 2 mg/kg bid subcutaneous), the “Muscle Histopathology Quad (Overall Damage)” value was 0 (4×) and 1; the “Muscle Histopathology Soleus (Overall Damage)” value came to 0. For the same compound, in series [7] (TMPD 4 mg/kg bid subcutaneous), the “Muscle Histopathology Quad (Overall Damage)” value is 1 (3×) and 2 (2×); the “Muscle Histopathology Soleus (Overall Damage)” value is 1 (3×) and 0 (2×).

With Gentamicin, the miR-10a in series [8] (Day 3, urine) is 11.98 copies/20 pg input RNA and 3.51 copies/20 pg input RNA and 0.03 copies/20 pg input RNA and 0.05 copies/20 pg input RNA and 10.00 copies/20 pg input RNA; in series [8] (Day 9, urine), 0.96 copies/20 pg input RNA and 0.64 copies/20 pg input RNA and 16.88 copies/20 pg input RNA and 51.03 copies/20 pg input RNA and 6.61 copies/20 pg input RNA and 4.90 copies/20 pg input RNA and 58.70 copies/20 pg input RNA and 38.01 copies/20 pg input RNA and 25.61 copies/20 pg input RNA; in series [8] (Day 12, urine) it was 3.5 copies/20 pg input RNA and 9.46 copies/20 pg input RNA and 4.17 copies/20 pg input RNA and 2.13 copies/20 pg input RNA and 4.99 copies/20 pg input RNA and 3.46 copies/20 pg input RNA and 3.86 copies/20 pg input RNA and 23.75 copies/20 pg input RNA and 10.40 copies/20 pg input RNA. In addition, in series [9], the “Kidney Histopathology: Proximal tubule overall tissue injury (highest severity grade measured at Day 12)” value is listed as 5.
